Assays:
[1] = Inhibition of Aminoglycoside N-acetyltransferases (unknown origin)
[2] = Inhibition of Histone acetyltransferase in human Huh-7.5.1 cells assessed as hepatitis C virus-induced EGF mRNA level measured after 72 hrs; details: Huh-7.5.1, 72 h

Row | SMILES | IC50 [1] | IC50 [2]
1 | CC(CCN[C@H](CN[C@H](CO)CN1CCC[C@H]1CN[C@H](CN)c1ccccc1)c1ccccc1)c1ccccc1 (some centres not stated) | 2100 nM | 
2 | O=C(CCCN1CCC(O)(c2ccc(Cl)cc2)CC1)c1ccc(F)cc1 [HALOPERIDOL] |  | 390 nM
